# Entries after “also recorded” stand apart in the source; their conditions may differ. Counter-ions that a name gives are not always drawn. Like-named read-outs stand apart in the source and are kept apart here.
# Columns and labels:
# [1] = test system: late passage prostate epithelial cells; type: cell-based; settings: for increase of total cell number after 5 days: KSFM plus individual compound alone at 5 μM; for increase of total cell number after 5 days / cell proliferation when used together with A83-01: 1 μM, 0.2 μM; for cell proliferation when used together with A83-01: KSFM supplemented with A83-01 plus compound at 5 μM, 5 days
# From the text: As described above, these include Rho kinase inhibitors (i.e., Rho-associated protein kinase inhibitors) such as Y-27632, SR 3677, GSK 429286 and Thiazovivin; PAK1 inhibitor IPA-3; and myosin II inhibitor (i.e., non-muscle myosin II (NM II) inhibitor) Blebbistatin.
# [2] = test system: human telomerase reverse transcriptase (hTERT) expression in bronchial epithelial cells; assay: hTERT expression by quantitative real-time PCR in bronchial epithelial cells; type: cell-based; settings: KSFM
# Protocol: (§1) Total RNA was prepared using TRIzol® Plus RNA Purification Kit (Life Technologies, 12183-555) and PureLink® RNA Mini Kit (Life Technologies, 12183018A), following the manufacturer's instructions. One hundred nanogram total RNA was used for the determination of human telomerase reverse transcriptase (hTERT) expression using the TaqMan® RNA-to-CT™ 1-Step Kit (Life Technologies, 4392938), following the protocol provided by the supplier. hTERT primers and Taqman probe used were as follows: forward primer, 5′-[…]-3′ (SEQ ID NO:1), reverse primer, 5′-[…]-3′ (SEQ ID NO:2) and Taqman probe, 5′-[…]-3′ (SEQ ID NO:3).
# (§2) In this example, hTERT expression in epithelial cells was assessed in the presence of an ALK5 inhibitor, a Rho kinase inhibitor (i.e., a Rho-associated protein kinase inhibitor), or both. Expression of hTERT gene was examined by quantitative real-time PCR in bronchial epithelial cells and prostate epithelial cells. The cells were treated with an ALK5 inhibitor, A83-01, or a Rho kinase inhibitor (i.e., a Rho-associated protein kinase inhibitor), Y-27632, or both inhibitors, at different passages in KSFM.
# [3] = test system: human telomerase reverse transcriptase (hTERT) expression in prostate epithelial cells; assay: hTERT expression by quantitative real-time PCR in prostate epithelial cells; type: cell-based; settings: KSFM
# Protocol: as §1, §2
# As shown in FIG. 6A and FIG. 6B, prostate epithelial cells at early passage (p2) expressed low level of hTERT, which quickly diminished at passage 3 and became non-detectable by passage 5.
# [4] = test system: prostate epithelial cells; assay: Plating efficiency of prostate epithelial cells in KSFM; type: cell-based, human
# From the text: (§3) In this example, epithelial cell plating efficiency, i.e., number of cells that efficiently attach to the cell culture surfaces, continue to divide and grow into colonies, was examined under various conditions.
# (§4) However, those few cells that did attach continued to proliferate.
# Many prostate epithelial cells attached to regular tissue culture surface in the presence of both A83-01 and Y-27632 at day 2 after plating.
# [5] = test system: bronchial epithelial cells; assay: Plating efficiency of bronchial epithelial cells in KSFM; type: cell-based, human
# From the text: as §3, §4
# Many bronchial epithelial cells attached to regular tissue culture surface in the presence of both A83-01 and Y-27632 at day 2 after plating.
# [6] = test system: prostate epithelial cells; assay: Growth (population doublings) of prostate epithelial cells; type: cell-based, human; settings: KSFM; for total population doublings: serial culture (FIG. 14)
# Protocol: (§5) Epithelial cells (prostate epithelial cells and bronchial epithelial cells) were plated at 3,000-10,000 viable cells/cm^2 in tissue culture vessels, using culture medium as indicated in Examples 2 to 5 and FIGS. 1 to 17, and incubated at 37° C. with 5% CO2. The medium was changed every 2 or 3 days. Cells were sub-cultured using standard trypsinization method when they were about 70-90% confluent. Total cell number was determined using the Countess II Automated Cell Counter (Life Technologies, AMQAX1000) following manufacturer's instructions.
# (§6) A formula used for the calculation of population doublings (PD) is presented in Equation A: n=3.32*(log Y−log I)+X Equation A where n=the final PD number at end of a given subculture, Y=the cell yield at the time of harvesting, I=the cell number used as inoculum to begin that subculture, and X=the doubling level of the inoculum used to initiate the subculture being quantitated.
# (§7) Prostate and bronchial epithelial cells were grown in KSFM in the presence of Rho kinase inhibitor (i.e., Rho-associated protein kinase inhibitor) Y-27632.
# To examine the effects of additional in vitro and/or ex vivo growth conditions, prostate epithelial cells were grown in KSFM or PrEGM in the presence of media alone, ALK5 inhibitor A83-01, Rho kinase inhibitor (i.e., Rho-associated protein kinase inhibitor) Y-27632, or both (with or without collagen).
# [7] = test system: bronchial epithelial cells; assay: Growth (population doublings) of bronchial epithelial cells; type: cell-based, human; settings: KSFM; for total population doublings: serial culture (FIG. 15)
# Protocol: as §5, §6, §7
# Similar to the experiment above, bronchial epithelial cells were grown in KSFM in the presence of media alone, ALK5 inhibitor A83-01, Rho kinase inhibitor (i.e., Rho-associated protein kinase inhibitor) Y-27632, or both (with or without collagen).
# [8] = test system: human foreskin keratinocytes (HFK) and human bronchial epithelial cells (HBEC); assay: Cell growth with increasing concentrations of isoproterenol; type: cell-based; settings: added to KSFM plus 1 μM A83-01 and 5 μM Y-27632, six days
# Protocol: In a further investigation, epithelial cell growth was assessed in the presence of a beta-adrenergic agonist (i.e., a beta-adrenergic receptor agonist). Human foreskin keratinocytes (HFK) and human bronchial epithelial cells (HBEC) were cultured in KSFM plus 1 μM A83-01 and 5 μM Y-27632, supplemented with increasing concentrations of isoproterenol (a beta-adrenergic receptor agonist that increases cytosolic cAMP levels). Cell numbers were counted after six days to calculate cell growth relative to control.
# [9] = regular (uncoated) tissue culture surface
# [10] = added together with A83-01, regular tissue culture surface
# [11] = used alone, continuous use (FIG. 13)
smiles,measurement,setting,value
"Cc1ccc2c(c1)C(=O)C1(O)CCN(c3ccccc3)C1=N2 (racemic) [Blebbistatin, (±)-1,2,3,3a-Tetrahydro-3a-hydroxy-6-methyl-1-phenyl-4H-pyrrolo[2,3-b]quinolin-4-one]",increase of total cell number after 5 days,[1],did not increase proliferation
same,cell proliferation when used together with A83-01,[1],synergistically increased
"Cc1cccc(-c2nn(C(=S)Nc3ccccc3)cc2-c2ccnc3ccccc23)n1 [A83-01, 3-(6-Methyl-2-pyridinyl)-N-phenyl-4-(4-quinolinyl)-1H-pyrazole-1-carbothioamide]",hTERT expression,[2]; early passage (p3),robustly induced hTERT expression
same,hTERT expression,[2]; late passage (p6),sustained measurable hTERT expression
same,hTERT expression,[3]; early passage (p2),quickly induced hTERT expression
same,hTERT expression,[3]; late passage (p5),sustained measurable hTERT expression
same,plating efficiency,[4]; [9],interfered with prostate epithelial cell plating efficiency
same,plating efficiency,[5]; [9],interfered with bronchial epithelial cell plating efficiency
same,total population doublings,[6],also increased the total population doublings
same,total population doublings,[7],also increased the total population doublings
same,increase of total cell number after 5 days,[1],pronounced increase of total cell number; also recorded: significantly increased
"CC1=C(C(=O)Nc2cc3cn[nH]c3cc2F)C(c2ccc(C(F)(F)F)cc2)CC(=O)N1 (stereo not shown) [GSK 429286, 4-[4-(Trifluoromethyl)phenyl]-N-(6-Fluoro-1H-indazol-5-yl)-2-methyl-6-oxo-1,4,5,6-tetrahydro-3-pyridinecarboxamide]",increase of total cell number after 5 days,[1],slight increase of total cell numbers
same,cell proliferation when used together with A83-01,[1],synergistic effect
"O=C(NC1CCOCC1)c1ccc(-c2cc(-c3c[nH]nc3-c3ccccn3)ccn2)cc1 [GW 788388, 4-[4-[3-(2-Pyridinyl)-1H-pyrazol-4-yl]-2-pyridinyl]-N-(tetrahydro-2H-pyran-4-yl)-benzamide]",increase of total cell number after 5 days,[1],pronounced increase of total cell number
same,cell proliferation when used together with A83-01,[1],little extra increase
"Oc1ccc2ccccc2c1SSc1c(O)ccc2ccccc12 [IPA-3, 1,1′-Dithiodi-2-naphthol]",increase of total cell number after 5 days,[1],did not increase proliferation
same,cell proliferation when used together with A83-01,[1],synergistically increased
same,cell death,[1]; highest concentration tested (5 μM),nearly total cell death
"Cc1cccc(-c2n[nH]cc2-c2ccc3ncccc3n2)n1 [RepSox, 2-(3-(6-Methylpyridine-2-yl)-1H-pyrazol-4-yl)-1,5-naphthyridine]",increase of total cell number after 5 days,[1],pronounced increase of total cell number
same,cell proliferation when used together with A83-01,[1],little extra increase
"NC(=O)c1ccc(-c2nc(-c3ccc4c(c3)OCO4)c(-c3ccccn3)[nH]2)cc1 [SB 431542, 4-[4-(1,3-benzodioxol-5-yl)-5-(2-pyridinyl)-1H-imidazol-2-yl]benzamide]",increase of total cell number after 5 days,[1],pronounced increase of total cell number
same,cell proliferation when used together with A83-01,[1],little extra increase
"CN(C)CCOc1cc(-c2cn[nH]c2)ccc1NC(=O)C1COc2ccccc2O1 (stereo not shown) [SR 3677, N-[2-[2-(Dimethylamino)ethoxy]-4-(1H-pyrazol-4-yl)phenyl-2,3-dihydro-1,4-benzodioxin-2-carboxamidedi hydrochloride]",increase of total cell number after 5 days,[1],slight increase of total cell numbers
same,cell proliferation when used together with A83-01,[1],synergistic effect
"O=C(NCc1ccccc1)c1csc(Nc2ccncn2)n1 [Thiazovivin, N-Benzyl-[2-(pyrimidin-4-yl)amino]thiazole-4-carboxamide]",increase of total cell number after 5 days,[1],slight increase of total cell numbers
same,cell proliferation when used together with A83-01,[1],synergistic effect
"C[C@@H](N)[C@H]1CC[C@H](C(=O)Nc2ccncc2)CC1.Cl.Cl [Y-27632, (R)-(+)-trans-4-(1-Aminoethyl)-N-(4-Pyridyl)cyclohexanecarboxamide dihydrochloride]",hTERT expression,[2]; early passage (p3),slightly induced hTERT expression
same,hTERT expression,[2]; late passage (p6),non-detectable
same,hTERT expression,[3]; early passage (p2),induced hTERT expression
same,hTERT expression,[3]; late passage (p5),non-detectable
same,plating efficiency,[4]; [10],ameliorated the low plating efficiency
same,plating efficiency,[5]; [10],ameliorated the low plating efficiency
same,population doubling reached shortly before senescence,[6],> 20 PD
same,total population doublings,[6],slightly increased the total population doublings
same,proliferation at late passage,[6]; [11],did not promote the proliferation
same,total population doublings,[7],slightly increased the total population doublings
same,proliferation at late passage,[7]; [11],did not promote the proliferation
same,increase of total cell number after 5 days,[1]; dihydrochloride,slight increase of total cell numbers; also recorded: slight increase of cell proliferation
same,cell proliferation when used together with A83-01,[1],synergistically increased
CC(C)NCC(O)c1ccc(O)c(O)c1 (stereo not shown) [isoproterenol],cell growth relative to control,[8],further increased epithelial cells growth
